Literature values in patent US20040052761A1, “Localized delivery system for cancer drugs, phenstatin, using N-isopropylacrylamide” (priority 2002, published 2004).

How the values were obtained:
[1] = system: tubulin; details: reference (1)
[2] = system: tubulin; details: reference (1); remark: listed apart in the source

For `COc1ccc(C(=O)c2cc(OC)c(OC)c(OC)c2)cc1O` [Phenstatin], the “inhibition of tubulin polymerization” value [1] is given as “potent inhibitor” and the “inhibition of the binding of colchicines to tubulin” value [2] is given as “potent inhibitor”.
